Here are results for three compounds from patent publication US20150338397A1, “Use of Bufodienolides in Diagnosing and Treating Essential Hypertension” (priority 2014, published 2015).

The conditions of assay [1]: in vitro; cited from earlier work.
The test system of assay [2] is volume expansion induced hypertensive rats. Description: Systolic blood pressure in saline volume expansion induced hypertensive rats (NDS). Type of assay: in vivo. Conditions: NDS rats given resibufogenin (NDSR) vs NDS; FIG. 1. From the text: (§1) FIG. 1. Mean systolic blood pressure (BP) values in sham (SHM) animals, angiotensin-infused rats (ANG), angiotensin infused animals given resibufogenin (ANGR), normal rats rendered hypertensive by the infusion of saline (volume expansion induced hypertensive rats) (NDS), NDS rats given resibufogenin (NDSR).

For the next assay, the system named is angiotensin-infused rats. Description: Systolic blood pressure in angiotensin-infused rats (ANG). Particulars: FIG. 1. Type of assay: in vivo.
Source text: as §1

The subject of assay [3] is volume expansion-mediated hypertension. Conditions: experimental animals; cited from earlier work.
For assay [4], the system named is animals subjected to angiotensin excess. Conditions: cited from earlier work.
For assay [5], the system named is rodent brain contusion model. Conditions: given 1 hour after the insult; cited from earlier work.
Assay [6] deals with preeclampsia in animal models. Conditions: cited from earlier work.

Turning to `C[C@]12CC[C@H](O)C[C@@]1(O)CC[C@@H]1[C@@H]2CC[C@]2(C)[C@@H](c3ccc(=O)oc3)C[C@H]3O[C@]132` [MBG, marinobufagenin], the Vasoconstrictor action entry in assay [1] was “acts in vitro as a vasoconstrictor”.
Regarding `C[C@]12CC[C@H](O)C[C@H]1CC[C@@H]1[C@@H]2CC[C@]2(C)[C@@H](c3ccc(=O)oc3)C[C@H]3O[C@]132` [RBG, epoxy-3β-hydroxy-5β-bufa-20,22-dienolide], the “Mean systolic blood pressure (BP)” value is “reduced blood pressure” in assay [2] and “only in the volume expanded animals” in the assay on angiotensin-infused rats (angiotensin infused animals given resibufogenin (ANGR) vs ANG). Also, the Blood pressure elevations entry in assay [3] is recorded as “resolves blood pressure elevations”. The Elevated blood pressure result in assay [4] was “does not lower elevated blood pressure”. In assay [5], the Tissue injury entry is “amelioration of tissue injury”. For the same compound, the Prevention of preeclampsia result in assay [6] is on record as “prevents preeclampsia”.
For the compound “angiotensin (DRVYIHPF; Angiotensin-2; UniProt P01019 25-32, looked up) [the major vasoconstrictor in the human body; infused to render rats hypertensive]”, the “Mean systolic blood pressure (BP), effect of angiotensin infusion” value in the assay on angiotensin-infused rats (angiotensin-infused rats (ANG) vs sham (SHM)) is “raised blood pressure equivalently”.
